For this experiment, the target named is Neprilysin (Homo sapiens, UniProt P08473). In words: Compound was evaluated for inhibition of enkephalin degrading enzyme, neutral endopeptidase (NEP).
Chain of Neprilysin (P08473 whole entry): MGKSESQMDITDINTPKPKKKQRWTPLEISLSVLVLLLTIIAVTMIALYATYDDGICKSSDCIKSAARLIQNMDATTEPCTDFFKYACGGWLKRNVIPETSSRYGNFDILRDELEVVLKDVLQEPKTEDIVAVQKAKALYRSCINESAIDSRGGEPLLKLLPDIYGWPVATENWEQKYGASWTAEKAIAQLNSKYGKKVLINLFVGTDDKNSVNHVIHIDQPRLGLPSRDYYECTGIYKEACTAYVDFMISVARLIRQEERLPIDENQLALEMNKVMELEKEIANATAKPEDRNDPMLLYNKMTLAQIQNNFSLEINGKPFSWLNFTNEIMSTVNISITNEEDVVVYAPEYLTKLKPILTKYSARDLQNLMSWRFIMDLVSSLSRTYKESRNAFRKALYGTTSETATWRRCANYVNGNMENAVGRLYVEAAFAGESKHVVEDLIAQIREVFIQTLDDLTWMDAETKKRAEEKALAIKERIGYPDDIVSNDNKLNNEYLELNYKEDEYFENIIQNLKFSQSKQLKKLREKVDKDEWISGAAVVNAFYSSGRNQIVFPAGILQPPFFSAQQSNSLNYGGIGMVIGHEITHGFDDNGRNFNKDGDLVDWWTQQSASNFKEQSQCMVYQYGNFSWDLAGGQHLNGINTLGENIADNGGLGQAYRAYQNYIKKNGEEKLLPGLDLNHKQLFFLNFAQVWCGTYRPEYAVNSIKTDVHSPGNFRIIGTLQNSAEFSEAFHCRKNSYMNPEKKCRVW

`CSCC[C@H](N)CSSC[C@@H](Cc1ccccc1)C(=O)NC(Cc1ccccc1)C(=O)OCc1ccccc1` (stereo partly specified) returned a Ki of 2 nM.

Broadly, the Ki is the equilibrium dissociation constant of an inhibitor or competing ligand from its target. Read a low Ki as a stronger hold on the target.

The values are drawn from ChEMBL document CHEMBL1134632, “Long lasting antinociceptive properties of enkephalin degrading enzyme (NEP and APN) inhibitor prodrugs” (J Med Chem, 2001).
